The text below walks through data of PMC5431342, “Discovery of an enzyme and substrate selective inhibitor of ADAM10 using an exosite-binding glycosylated substrate” (Scientific Reports, 2016).

The target in test [1] is T1, ADAM10 (Homo sapiens, UniProt O14672).
T1 construct: purchased R&D Systems 936-AD
T1 sequence (O14672 214-748): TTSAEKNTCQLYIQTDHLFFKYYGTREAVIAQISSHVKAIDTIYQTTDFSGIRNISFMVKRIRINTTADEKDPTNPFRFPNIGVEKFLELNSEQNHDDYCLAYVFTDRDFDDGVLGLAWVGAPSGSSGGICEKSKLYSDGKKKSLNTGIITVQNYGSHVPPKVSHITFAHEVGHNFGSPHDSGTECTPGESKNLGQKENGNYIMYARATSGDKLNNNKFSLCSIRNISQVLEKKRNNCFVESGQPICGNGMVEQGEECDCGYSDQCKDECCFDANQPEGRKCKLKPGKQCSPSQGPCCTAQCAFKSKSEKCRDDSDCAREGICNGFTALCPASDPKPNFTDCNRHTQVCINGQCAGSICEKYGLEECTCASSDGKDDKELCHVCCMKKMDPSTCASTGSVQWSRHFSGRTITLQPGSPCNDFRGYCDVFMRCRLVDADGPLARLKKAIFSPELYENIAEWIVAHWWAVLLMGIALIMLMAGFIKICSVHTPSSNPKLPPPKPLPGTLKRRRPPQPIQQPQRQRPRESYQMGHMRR
Kind of test: ADAM10 glycosylated substrate uHTS/HTS assay. It counts as biochemical. How it is done: To enable uHTS both ADAM10 and ADAM17 glycosylated substrate[13] (Fig. 1A) assays were miniaturized to 1536 well plate format. The workflow of the assays in 384 well plate format was recaptured in 1536 well plate format and assay volume was scaled down to 5 µL.
Both assays followed the same general protocol. […] Reactions were incubated at RT for 2 h, after which the fluorescence was measured using Perkin Elmer Viewlux multimode microplate imager (λexcitation = 360 nm, λemission = 460 nm). Final concentration of test compounds in assays was 7.0 µM.
The miniaturized 1536-well plate format ADAM10 and ADAM17 assays were used to screen a collection of ≈370,000 compounds (MLSMR library, provided by the NIH) on the automated Kalypsys/GNF platform at the Scripps Research Institute Molecular Screening Center (SRIMSC, Jupiter, FL. More details at http://hts.florida.scripps.edu/). […] Both uHTS campaigns were run separately but in a similar manner. Briefly, the first step was the primary screen of all MLSMR’s test compounds as singlicate against the ADAM10 or ADAM17 target at a final concentration of 7.0 μM. Next, compounds selected as primary hits were cherry-picked and retested in triplicate against the primary screen target and its anti-target (ADAM17 for the ADAM10 screening effort, and vice-versa) at the same final concentration of 7.0 μM. […] All data generated during this effort were uploaded to the SRIMSC’s institutional screening database (Assay Explorer, Symyx). Sample to background (S/B) ratios, as well as Z and Z′ values were calculated on a per-plate basis as described before. Curve fitting and resulting IC50 determinations were performed as previously reported.

Test [2] addresses T1, ADAM10. Kind of test: HPLC-based ADAM10 assay using glycosylated substrate. It counts as biochemical. How it is done: Both assays followed the same general protocol. 30 µL of 3x enzyme solution (30 nM) in assay buffer (10 mM Hepes, 0.001% Brij-35, pH 7.5) were added to solid bottom black 384 plates. Next, 30 µL of 3x test compounds and pharmacological controls were added to corresponding wells. After 30 min incubation at RT, the reactions were started by addition of 30 µL of 3x solution of glycosylated substrate (30 µM). Reactions were incubated at RT for 2 h and then quenched with 10 µL of 500 µM EDTA. Analytical RP-HPLC was performed on a 1260 Infinity Agilent Technologies liquid chromatograph equipped with an Agilent Poroshell 120 column. Eluents were 0.1% TFA in water (A) and 0.1% TFA in acetonitrile (B). The elution gradient was 0–98% B in 15 min with a flow rate of 1.0 mL/min. Detection was at λ = 214, 360, and 460 nm.

Test [3] relates to shedding of HER2 from the surface of BT474 cells. Briefly: HER2 shedding inhibition (AlphaLISA soluble HER2). It counts as cell-based. The conditions noted are these: Homo sapiens, BT-474, 48 h. As to the method: To determine the effect of CID 3117694 on the release of HER2, an AlphaLISA soluble HER2 assay kit was utilized (Perkin Elmer # AL234 C/F). Briefly, 20,000 BT474 (HER2 positive) breast cancer cells were seeded in 200 µL of complete Hybricare media in 96 well plates. After 4 h, media was aspirated and CID 3117694 (3.125–100 µM) and controls (50 µM marimastat and GI 254023X)[11] were added in serum-free media. Cells were incubated for 48 h at 37 °C with 5% CO2 and under a humidified atmosphere. After incubation, 5 µL of supernatant was transferred into white opaque 384 well plate for HER2 AlphaLISA assay.
Background: Alpha assays give light when donor and acceptor beads are brought close together.

Test [4] deals with CCL2-induced migration of peripheral blood mononuclear cells (PBMC). Kind of test: PBMC migration assay. It counts as cell-based. The following applies: statistical significance not reached. As to the method: For PBMC or primary human neutrophil chemotaxis assays, transwells with 8 or 5 µm pores were filled with 100 µL of cell suspension (1 × 10^6 cells in 100 µL DMEM + 0.2% BSA). Lower wells were filled with stimulus solution (3 nM CCL2 or 10 µg/mL CXCL8 (IL8) in assay buffer (RPMI + 0.2% BSA). After incubation of PBMCs for 2 h or neutrophils for 45 min, migrated cells were quantified in the lower well. For inhibitor studies, cells were pre-incubated in migration medium for 30 min and subsequently subjected to the migration experiment. Migrated neutrophils or PBMCs were quantified by measurement of endogenous glucuronidase activity as described.

In the next test the test system is MDA-MB-231 cells. Kind of test: Wound closure assay, MDA-MB-231. It counts as cell-based. The following applies: MDA-MB-231, 10 µM. How it is done: For live-cell analysis of scratch-induced wound closure, 2.5 × 10^4 MDA-MB-231 and A549 cells per well were seeded in collagen G (40 µg/mL) (Biochrom AG, Germany) coated 96-well plates near confluence and allowed to grow overnight in standard medium (DMEM supplemented with 10% FBS and 1% P/S). At confluence, cells were pretreated 2 h with mitomycin (10 µg/mL) (Medac, Germany) to block cell proliferation and washed with standard media. Afterwards, cells were incubated in the presence of inhibitor at the indicated concentrations or DMSO (0.1% vehicle). Subsequently, a defined scratch (wound width between 642–767 µm) was performed in each well using the certified Essen Bioscience automated 96-wound maker^TM (Essen Biosciences, Hertfordshire, UK) for 96 well-plates. The medium was removed and 100 µL standard medium were added to the wells containing either inhibitor or DMSO. The closure of the wounded area was monitored using the IncuCyte ZOOM system by taking images of each well every 2 h over a period of 24 h. The reduction of wound width was determined over time using the IncuCyte ZOOM microscope software 2014A. Data were expressed as percentage of wound closure after 8 h.

As a reminder, the IC50 is the concentration that gives 50% inhibition. Low readings indicate greater potency in that assay, high ones weaker potency in that assay. Consider `COc1cccc(C(=O)NNC(=O)C(=O)Nc2ccc(C)c(Cl)c2)c1` [CID 3117694], for which, at ADAM10 [1], the “difference in potency, 0.5 hour pre-incubation versus no incubation” value was “approximately 40 fold”. In addition, the IC50 at ADAM10 [1] (1 h pre-incubation) is 0.7 ± 0.5 µM; at ADAM10 [1] (4 h pre-incubation) it was 0.4 ± 0.3 µM; at ADAM10 [1] (no pre-incubation with ADAM10), 40 ± 5 µM; at ADAM10 [1] (original uHTS dose response, 10-point 1:3 dilutions starting at 70 µM), 6.5 µM; at ADAM10 [1] (reordered powder, HTS assay, glycosylated substrate, 0.5 h pre-incubation), 1.1 µM; on ADAM10 [2], 4.1 µM. In addition, in test [3], 30 ± 2.5 µM corresponded to half-maximal inhibition (IC50). For the same molecule, the “difference in in vitro potency for ADAM10, GI 254023X versus CID 3117694” value at ADAM10 [1] (IC50 5.3 nM versus 1.1 µM) was roughly 200 fold. Besides, the inhibition profile result against ADAM10 [1] (no pre-incubation with ADAM10) is reported as “partial inhibition profile”. In addition, the “inhibition of PBMC migration” value in test [4] is recorded as “approximately 50%”. Further, in the test on MDA-MB-231 cells, the “effect on wound healing” value is given as “significantly decreased wound healing”.
